Test results published in a melting point compilation (Tetko et al.; mined from patent text by program, amines drawn as free bases though some values may be those of a salt).

Compound | melting point [°C]
COc1ccc(NN=C(Cl)C(C)=O)cc1 | 114 to 116
CCCCc1ncc(C=C2C(=O)Nc3ccccc32)n1Cc1ccc(C(=O)OC)cc1Cl | 219 to 220
NS(=O)(=O)c1ccc(-c2ccccc2-c2ccc(F)c(Cl)c2)cc1 | 192 to 193
COc1ccc(N2C(=O)C(=C3CCCN3C)c3ccccc32)cc1Cl | 126 to 128
CCCCc1ccc(-c2nc3ccccc3[nH]2)nc1 | 138 to 139
CCCCOC(=O)c1cn(CC)c2nc(N3CCNCC3)c(F)cc2c1=O | 119 to 120
CC(=O)Nc1nc2c(s1)CCN(Cc1ccccc1)CC2 | 129 to 130
O=C(O)/C=C/c1ccc(N2CCCC2)nc1 | 170
N#CC1CN1C(=O)NC(=O)COc1ccccc1 (stereo not given) | 134 to 136
COc1c(C2CCN(CCCCNC(=O)c3ccc(-c4ccc(Cl)nn4)cc3)CC2)ccc2c1CCCC2 | 192 to 194
CC1CN(c2ncc(C(=O)N(c3cccc(C(F)(F)F)c3)C3CCCC3)c(N)n2)C(=O)N1 (stereo not given) | 219 to 220
O=C1NCCc2oc3ccccc3c21 | 158 to 161
N[C@@H](Cc1ccccc1)C(=O)NC(=O)OCc1ccccc1 | 158 to 160
O=C(CCCl)Nc1ccccc1 | 114 to 116
CSc1nc(N)c([N+](=O)[O-])c(N2CCS(=O)CC2)n1 | 239 to 242
Cc1[nH]n(C2CCCC2)c2nc(C3CCN(C(=O)C(F)(F)F)CC3)nc(=O)c1-2 | 219 to 221
O=[N+]([O-])c1ccc(OC2(c3ccccc3)CCN(Cc3ccccc3)CC2)cc1 | 135 to 137
CCCc1cc(=O)oc2c(C(=O)CC)c(O)c3c(c12)OC(C)(C)C=C3 | 96 to 98
CCOC(=O)CC(C(=O)OCC)N1CCN(CC2CN(c3ccc(C(=N)NC(=O)c4ccccc4)cc3)C(=O)O2)CC1 (stereo not given) | 136
O=C(O)c1c(C(F)(F)F)nc2cc(C(F)(F)F)ccc2c1O | 240
COc1cc(C(=O)O)cc(OC)c1CC(C)C | 160 to 162
Nc1cc(F)cc2c(Cl)ccnc12 | 98 to 103
Nc1nc2c(s1)CCN(CC=Cc1cccc(OCc3ccccn3)c1)CC2 | 35 to 40
CN=C(NS(=O)(=O)c1ccc(Cl)cc1)C1=NN(c2ccc(Cl)cc2Cl)C(c2ccccc2)C1 (stereo not given) | 128 to 130
COc1ccc(CNc2ccnc(Cl)c2C(=O)O)cc1Cl | 228 to 230

Compound | melting point [°C]
Nc1ncnn1C(=S)NCc1ccccc1 | 157 to 158
Cc1nc2c(s1)-c1nc(N)ncc1CC2 | 241 to 243
CN(C)C(=O)c1ccc2ccccc2c1-c1ccccc1 | 86 to 87
COc1cccc2nc3c(c(N)c12)CCCC3 | 187 to 188
CC1CCC(N(CC2CCC(CN(C(=O)Nc3ccc(N4CCCCC4)cc3)C3CCC(C)CC3)CC2)C(=O)Nc2ccc(N3CCCCC3)cc2)CC1 (stereo not given) | 161 to 165
CCC(CO)Nc1nc(C)nc2c(C)nn(C)c12 (stereo not given) | 165 to 168
O=C1CN(Cc2ccccc2)C(=O)[C@@H](Cc2c[nH]c3ccccc23)N1 | 207 to 208
CCCCOCCOc1ccc(-c2ccc3c(c2)C=C(C(=O)Nc2ccc(N(C)Cc4nncn4CCC)cc2)CCN3CC(C)C)cc1 | 134 to 136
COC(=O)c1cc2cc(OCc3cccnc3)ccc2s1 | 126 to 127
NS(=O)(=O)c1ccc(-c2cn(-c3nc(-c4ccc(F)c(F)c4)cc(C(F)(F)F)n3)cn2)s1 | 228
Cc1ccc(S(=O)(=O)N(C)c2ccc([N+](=O)[O-])cc2C)cc1 | 103 to 104
Cn1cc(C(N)=O)c([N+](=O)[O-])n1 | 190 to 192
COc1ccc(-c2ccc(C3=NOC(CNC(C)=O)C3)cc2)ccc1=O (stereo not given) | 104 to 105
O=C(O)COc1ccc([N+](=O)[O-])c(C(F)(F)F)c1 | 92 to 95
O=S(=O)(c1ccccc1)n1nc(-c2ccncc2)nc1-c1ccncc1 | 210 to 212
NC(=O)CN1CCN(C(=O)Cc2ccc(OC(=O)c3ccc([N+](=O)[O-])cc3)cc2)CC1 | 192 to 196
CCC1(CC)c2cc(-c3ccc(N(c4ccccc4)c4ccccc4)cc3)ccc2-c2ccc(-c3nc4ccccc4s3)cc21 | 206 to 208
Cc1cc(N2CCC(=O)CC2)c2cc(C)c(-c3ccc(Cl)cc3Cl)n2n1 | 170 to 171
CN(C)c1ncc(-c2ccc(Cl)cc2Cl)c(N)n1 | 151
CCC(Oc1cccc([N+](=O)[O-])c1)C(=O)NCc1ccccc1 (stereo not given) | 114 to 116
CCN1CCN(c2ccnc3sc(C(N)=O)c(N)c23)CC1 | 218 to 219
COC(=O)C1N=c2c(ccc3c2=CC=N3)O1 (stereo not given) | 207 to 208
COc1ccc2c(c1)c(CC(C)NC(=O)C(F)(F)F)c1n2CCC1 (racemic) | 131 to 133
CC(C)n1nc(-c2c(OCCN(C)C)nc(N)nc2-c2ccccc2)ccc1=O | 130 to 132
CC(C)c1cccc(C(C)C)c1NS(=O)(=O)CC(=S)Oc1c(C(C)C)cccc1C(C)C | 169 to 171

Compound | melting point [°C]
CC(=O)OC1CC(C)(C)C(OC(=O)c2ccccc2)C(O)C=C1C (stereo not given) | 113 to 114
O=C1NC(=O)C(CC#Cc2ccc(Cl)cc2)(Sc2ccc(F)cc2)S1 (stereo not given) | 116 to 117
COc1cc(O)c2c(=O)c(OC)c(-c3ccc(OC(C)=O)c(OC)c3)oc2c1 | 168 to 169
CCC(CC)COC(=O)c1ccc(N)cc1 | 52 to 53
Cc1ccc(C2=NN=CNC2C)cc1 (stereo not given) | 246
O=C(Nc1ccc(-c2ccc(C(=O)N3CCN4CCC3CC4)o2)cc1)Nc1cccc(F)c1 | 230
COc1cc(C=C(C)[N+](=O)[O-])cc2c1OC(C)(C)C2 | 120 to 121
Cc1cc(C(=O)NCCO)ncc1C(c1cc(F)ccc1F)S(=O)(=O)c1cc(F)cc(F)c1 (stereo not given) | 82 to 84
CC1(C(=O)C2(C)COCOC2)COCOC1 | 100 to 102
COc1ccc(N2CCOCC2)c2sc(-c3nc4ccc(C)nc4[nH]3)nc12 | 200 to 210
CSc1nc2c(F)cccc2s1 | 30
COc1ccc(-c2cc(Cl)c3cc(O)ccc3c2)cc1 | 116 to 118
N#CSc1cnn(-c2nc(F)c(C(F)(F)F)cc2Cl)c1N | 109 to 114
CCOC(=O)CSc1nc(Cl)cc(Nc2ccccc2)n1 | 109 to 114
COc1ccc(C2=NN(c3ccccc3)C(=O)[C@H]3CC=CC[C@@H]23)cc1Cl (relative stereo) | 151 to 152
Cc1ccccc1C(=O)NC(=O)NC1CN2CCC1CC2 (stereo not given) | 216 to 217
CC(C)(C)c1ccc(-c2c(Cl)c(CN3C(=O)CCC3=O)nc3sc4c(c23)CCNC4)cc1 | 210 to 212
Cc1nn(CC(F)(F)COC(=O)CN(C)C)c(-c2ccc(F)cc2)c1-c1ccc2c(c1)NC(=O)CO2 | 153 to 155
O=C(O)COc1cc2onc(-c3ccccc3F)c2cc1Br | 223 to 224
CC(C)c1noc(-c2ccccc2)c1-c1ccc(S(N)(=O)=O)cc1 | 205
CCC1N=C(c2ccccc2Cl)c2cc(CCC(=O)O)sc2-n2c(C)nnc21 (stereo not given) | 218 to 220
COc1cc2ncnc(N3CCN(C(=S)Nc4ccc(Cc5ccncc5)cc4)CC3)c2cc1OC | 198 to 200
c1ccc(COc2cccc(-n3cnnn3)c2)cc1 | 85 to 86
O=C1NC(=O)c2c1cc1ccc3c(c1c2-c1ccc(F)cc1)OCO3 | 269 to 271
COC(=O)c1sc2cc(CO)ccc2c1C | 121 to 123

Compound | melting point [°C]
NCc1cccc(-c2csc(N=C(N)N)n2)n1 | 228 to 229
CCOC(=O)COc1cc2c(c(Cl)c1Cl)C(=O)C(c1ccc(F)cc1)C2 (stereo not given) | 143 to 144
COc1ccc(-c2ccncc2)cc1-c1cccc([N+](=O)[O-])c1 | 145 to 150
CCCCCCCCC(Br)C(=O)Nc1c(OC)cc(OC)cc1OC (stereo not given) | 109 to 110
COc1ccc2c(C)c(C(=O)C34CC5CC(CC(C5)C3)C4)oc2c1 | 173 to 175
COC(=O)C1=C(C)NC(C)=C(C(=O)OCCCOc2ccc(CCCCO)cc2)C1c1cccc([N+](=O)[O-])c1 (stereo not given) | 72
CC1(N)CN(C(c2ccccc2)c2ccccc2)C1 | 84 to 86
O=C(NCc1cccnc1)Nc1cc(N2CC(c3ccccc3)CC2=O)ccn1 (stereo not given) | 179 to 180
Cc1cc(-c2cnn3c(C(F)F)cc(-c4ccc(C(F)(F)F)cc4)nc23)ccn1 | 213
CCOc1cccc(-c2c(C)c(=O)cc(-c3ccccc3)n2-c2ccccc2)c1 | 146 to 149
COC(=O)c1c(-c2ccccc2)[nH]c(-c2ccncc2)c1C | 202 to 204
O=[N+]([O-])c1oc2ccc(CN3CCOCC3)cc2c1-c1ccccc1 | 151 to 154
CNC(=O)C(Cc1ccc(O)cc1)NC(=O)Nc1n[nH]c(=S)s1 (stereo not given) | 198 to 200
N#CC=C1CCc2ccc3ncoc3c21 | 166 to 168
CC(=O)Nc1cccc2c1NC(=O)C2c1ccccc1 (stereo not given) | 258 to 262
CCCCCCCCCCCCCCCCCCCC(C)=O | 41 to 42
Cc1cc(C(F)(F)C(F)(F)F)ccc1NC(=O)c1ccc(Cl)c(Cl)c1C(=O)NC(C)C | 208 to 209
O=C(O)C(C1CC(Cl)=NO1)N1C(=O)c2ccccc2C1=O (stereo not given) | 178 to 179
O=S(=O)(NCC1CCN(C[C@H]2COc3ccc(C(F)(F)F)cc3O2)CC1)c1cccc(Cl)c1Cl | 139 to 140
O=C1CN=C(c2ccccc2Cl)c2cc(I)ccc2N1 | 260 to 262
COc1cc(-c2ccc(-c3ccc(N=Nc4ccccn4)c(OC)c3)o2)ccc1N=Nc1ccccn1 | 212 to 213
COC(=O)C(Cl)Cc1ccc2ccc(Oc3c(Cl)cc(C(F)(F)F)cc3Cl)cc2c1 (stereo not given) | 136
COc1ccc(CN(C)CCOc2ccc(NC(=O)c3cc(SC)cc4c(=O)c5ccccc5[nH]c34)cc2)cc1OC | 170
NC(=O)CN1C(=O)CN2C(=O)CCC12 (stereo not given) | 182 to 185
C[C@H]1N(C(=O)c2ccc(C(F)(F)F)cc2)CC(F)O[C@@]1(Cn1cncn1)c1ccc(Cl)cc1Cl (relative stereo) | 151 to 156
